According to US10261017B2, “Methods for detecting and categorizing skin sensitizers” (University of Mississippi, priority 2014, dated 2019):
Structures can show the parent of a compound that is named as a salt. Where two headings read alike, the source gives them in different places.

How the values were obtained:
[1] = cited from earlier work; for LLNA EC3: reported results (Table 7); for LLNA (EC3): effective concentration, published literature (Table 1); for LLNA Classification: published literature
[2] = Microplate spectrophotometric method (DCYA assay), fluorescence end-point; details: for DCYA 100-RI: RI = reactivity index, 2 equiv. electrophile, pH 10 buffer; for DCYA binary classification: FN: false negative; for DCYA binary classification: FP: false positive; for DCYA binary classification: TN: true negative; for DCYA binary classification: TP: true positive, positive if 100-RI <95; for DCYA assay reactivity / classification in words: microplate spectrophotometric method
[3] = tested on: thiol peptide; details: cited from earlier work; for Cys-DPRA, percentage of thiol peptide depleted: adopted from the literature
[4] = tested on: ARE-dependent gene activity in a recombinant cell line; details: cited from earlier work
[5] = tested on: thiol peptide; assay: Cys-DPRA (Direct Peptide Reactivity Assay), literature data; details: for Cys-DPRA binary classification: FN: false negative; for Cys-DPRA binary classification: FP: false positive; for Cys-DPRA binary classification: TN: true negative; for Cys-DPRA binary classification: TP: true positive
[6] = NMR method: depletion of electrophile signal on reaction with DCYA; details: for Conversion at t30 (depletion of electrophile signal): at 30 min; for Conversion at t30 (depletion of electrophile signal) / NMR Method conversion: 1 equiv. DCYA; for NMR Classification: based on depletion of electrophile signal at 30 min; for NMR Method conversion: conversion of test chemical at 90 min, CDCl3; for Conversion rate: 0.1 M DCYA, 0.1 M L-carvone
Excerpt: The described example can be applied to pure chemicals and mixtures. The method includes the acquisition of at least one NMR spectrum, mixing an electrophile and a nucleophile to acquire an array of control spectra and an addition of catalyst to record an array of reaction spectra. It also includes the quantification of at least one signal and the comparison of the signal with a control and the classification of the reaction based on the depletion of potential sensitizer based on the quantified residual signal.
2,5-Dimethylfuran was used as internal standard. When necessary, characterization of the product(s) formed during the reaction(s) was performed by homonuclear ^1H connectivities using 2D-COSY experiments. […] Two- and three bond ^1H-^13C connectivities were determined by gradient-HMBC experiments in which the evolution period for long-range ^1H-^13C coupling constants was optimized for a ^2,3JC,H of 8 Hz. Through-space ^1H connectivities were determined using a NOESY experiment with a mixing time of 0.450 s. […] Toronto, Canada].
In a 3 mm NMR tube, 1 volume of DCYA (100) mM in CDCl3) was mixed with one volume of sensitizer (100 mM in CDCl3) to give a final concentration of 50 mM for both DCYA and the sensitizer. Control ^1H NMR spectra (reference spectra) were recorded at regular intervals of for a minimum of 5 min. […] All spectra were recorded at constant temperature. All experiments were conducted using the manufacturer's standard presaturation pulse programs and experimental conditions were chosen as explained in NMR spectroscopy section. The progress of the reaction was followed by the diminished peak areas of the resonances for the signal of interest. The spectra were phased, referenced, and integrated using NMR data elaboration software. The structural characterizations of the resulting adducts were confirmed by conducting additional 2D-NMR experiments when necessary.
Covalent reaction of DCYA with carvone is dependent on the activation of the nucleophilic group (ex. sulfhydryl group to the reactive thio-anion) under basic conditions. This reaction is strongly dependent on the nature of the nucleophile and may be modulated by careful choice of the model nucleophile and the reaction conditions.
The control spectra are used as reference spectra (FIG. 3A). All the spectra were subjected to automatic phase and baseline correction using a Bernstein polynomial fit (order 3). After these two steps, all the spectra were integrated over the areas of interest. […] Both vinylic and adduct peak areas were normalized relative to the internal standard signal peaks. […] The concentrations of both electrophile and adduct were then plotted as percentage against time (in minutes). (FIG. 5).

[7] = reported results from the literature

SMILES | LLNA EC3 [1] [%] | DCYA 100-RI [2] | Cys-DPRA % Pept. remain. [3, 7] [%] | KeratinoSens ™ EC3 ([4]; reported results (Table 7)) [µM] | Cys-DPRA binary classification: FN [5] | Cys-DPRA binary classification: FP [5] | Cys-DPRA binary classification: TN [5] | Cys-DPRA binary classification: TP [5] | DCYA binary classification: FN [2] | DCYA binary classification: FP [2] | DCYA binary classification: TN [2] | DCYA binary classification: TP [2] | other results
O=C1OC(=O)C2CCCCC12 (stereo not shown) [1,2-Cyclohexanedicarboxylic anhydride] | 0.84 | 104.6 | 84.3 | >2000 | – | – | – | – | – | – | – | – | –
CCC=CC=CC=O [2,4-Heptadienal] | 4 | 54.1 | 2.7 | 21.91 | 0 | 0 | 0 | 1 | 0 | 0 | 0 | 1 | –
CC(=O)C(=O)CC(C)C [5-Methyl-2,3-hexanedione] | – | 90.3 | 74.2 | 332.21 | 0 | 0 | 0 | 1 | 0 | 0 | 0 | 1 | –
Clc1ccccc1 [Chlorobenzene] | – | 97.8 | – | – | 0 | 0 | 1 | 0 | 0 | 0 | 1 | 0 | Cys-DPRA % Pept. remain. [3]: 99.6%; KeratinoSens ™ EC3 [4]: >2000 µM
OCC=Cc1ccccc1 [Cinnamyl alcohol] | 21 | 105.0 | 100 | >2000 | – | – | – | – | – | – | – | – | –
CCOC(=O)/C=C\C(=O)OCC [Diethyl maleate] | 5.8 | −8.84 | 0 | 82.85 | 0 | 0 | 0 | 1 | 0 | 0 | 0 | 1 | –
O=c1c(-c2ccccc2)c1-c1ccccc1 [Diphenyl cyclopropenone] | 0.003 | 96.3 | 1.2 | 1.84 | 0 | 0 | 0 | 1 | 1 | 0 | 0 | 0 | –
C=CC(=O)OCC [Ethyl acrylate] | 28 | −0.7 | 3.6 | 231.19 | 0 | 0 | 0 | 1 | 0 | 0 | 0 | 1 | LLNA (EC3) [1]: 28%; LLNA Classification [1]: Weak; Conversion at t30 (depletion of electrophile signal) [6]: 92%; NMR Classification [6]: Strong; NMR Method conversion ([6]; 0.1 equiv. DBN): 93%; Cys-DPRA, percentage of thiol peptide depleted [3]: 96.4%; KeratinoSens ™ EC3 ([4]; published literature (Table 1)): 231.19 µM
C=C(C)[C@@H]1CC=C(C)C(=O)C1 [L-Carvone] | 13 | 88.4 | – | – | 0 | 0 | 0 | – | 0 | 0 | 0 | 1 | LLNA Classification [1]: Moderate; Depletion ([6]; 0.05 equivalents DBN, chloroform): 23%; Depletion ([6]; 0.1 equivalents DBN, chloroform): 35%; Depletion ([6]; 0.2 equivalents DBN, chloroform): 28%; Conversion rate ([6]; DMSO, 0.1 equiv. DBN): 42%; Conversion rate ([6]; acetonitrile, 0.1 equiv. DBN): 47%; Reaction between DCYA and carvone ([6]; aqueous pH 10 buffer (5% v/v) in acetonitrile, after 90 minutes): 42%; Conversion at t30 (depletion of electrophile signal) [6]: 16%; NMR Classification [6]: Weak; NMR Method conversion ([6]; 0.1 equiv. DBN): 16%; Electrophile depletion ([6]; excess of DCYA, chloroform, 0.1 equiv. DBN): around 37%; Depletion ([6]; excess of electrophile, 2 equiv., chloroform, 0.1 equiv. DBN): 21%; Depletion ([6]; excess of electrophile, 4 equiv., chloroform, 0.1 equiv. DBN): 8%; Cys-DPRA, percentage of thiol peptide depleted [3]: 26.3^20%; KeratinoSens ™ EC3 ([4]; published literature (Table 1)): 258.71^20 μM
CC(C=O)Cc1ccc(C(C)(C)C)cc1 (stereo not shown) [Lilial] | – | – | 86 | >2000 | 0 | 1 | 0 | 0 | 1 | 0 | 0 | 0 | DCYA assay reactivity / classification in words [2]: non-reactive
COc1cc(C=O)ccc1O [Vanillin] | – | 106.4 | 96.8 | >2000 | 0 | 0 | 1 | 0 | 0 | 0 | 1 | 0 | –
CC/C=C\CCCCC=O [cis-6-Nonenal] | – | 107.3 | 92 | 687.67 | 0 | 0 | 0 | 1 | 1 | 0 | 0 | 0 | –
Oc1ccc(O)cc1 [p-Hydroquinone] | 0.11 | 127.1 | 16.7 | 51.29 | – | – | – | – | – | – | – | – | LLNA (EC3) [1]: 0.11%; LLNA Classification [1]: Strong; NMR assay reactivity / classification in words [6]: almost unreactive; Conversion at t30 (depletion of electrophile signal) [6]: 5%; NMR Classification [6]: Non^$; NMR Method conversion ([6]; 0.1 equiv. DBN): 5%; DCYA assay reactivity / classification in words [2]: non-reactive; Cys-DPRA, percentage of thiol peptide depleted [3]: 83.3%; Cys-DPRA reactivity in words ([3]; literature): non-reactive; KeratinoSens ™ EC3 ([4]; published literature (Table 1)): 51.29 µM
CCC/C=C/C=O [trans-2-Hexenal] | 5.5 | 29.9 | 2.1 | 374.57 | 0 | 0 | 0 | 1 | 0 | 0 | 0 | 1 | LLNA Classification [1]: moderate sensitizer
